From patent US9125898B2, “Acetam derivatives for pain relief” (NEUROTUNE AG, priority 2008, dated 2015)

Test system: chronic constriction injury induced hyperalgesia in the rat
Assay: Chronic constriction injury induced hyperalgesia in the rat (paw-pressure test)
Type: in vivo
Details: for Paw pressure, pre-test before all treatments: baseline, drug 100 mg/kg p.o.; for Paw pressure, 5 day 30 min / Paw pressure, 10 day 30 min / Paw pressure, 14 day 30 min / Paw pressure, 14 day 4 h / Paw pressure, 14 day 8 h / Paw pressure, 15 day 24 h / Paw pressure, 18 day 3 days: 100 mg/kg p.o. once a day for 14 days
Procedure: In the repeated administration protocol, NT-13317 was orally administered at 100 mg/kg in 1% CMC once a day for 14 days starting from the day of sciatic nerve ligation.
Peripheral rat mononeuropathy (Chronic constriction injury): Neuropathy was induced according to the procedure described by Bennett and Xie (Bennett G J, Xie Y K. A peripheral mononeuropathy in rat that produces disorders of pain sensation like those seen in man. Pain 1988; 33: 87-107).
Briefly, rats were anaesthetized with chloral hydrate 400 mg/kg intraperitoneally (i.p.); under aseptic conditions, the right common sciatic nerve was exposed at the level of the middle thigh by blunt dissection. Proximal to the trifurcation, the nerve was carefully freed from the surrounding connective tissue and four chromic cat gut ligatures (4-0, Ethicon, Norderstedt, Germany) were tied loosely around it with about 1 mm spacing. After haemostasis was confirmed, the incision was closed in layers. Then animals were allowed to recover from anaesthesia and surgery and were kept one per cage with free access to water and standard laboratory chow.
Statistical analysis: All experimental results are given as the mean±S.E.M. An analysis of variance, ANOVA, followed by Fisher's protected least significant difference procedure for post hoc comparison, were used to verify significance between two means of behavioural results. Data were analyzed with the StatView software for the Macintosh (1992). P values≦0.05 were considered significant.
Data of mechanical threshold (PWT) were converted to a percentage of the maximal possible effect (% MPE), according to Veneroni, O. et al. as follows: %MPE=(left dose PWT−left pre-dose control PWT)/(left naïve PWT−left pre-dose PWT)*100
The obtained % MPE were employed for ED50 calculation (obtained by Grafit v. 5.0), defined as the dose producing 50% reversal of mechanical allodynia.

Question: `NCC1(CC(=O)O)CCCCC1` [GABAPENTIN, Gabapentin, reference compound] was tested. Which “Paw pressure, pre-test before all treatments” value (CCI group) did it give?
Answer: Its value is 62.9 ± 3.3 g.

Question: What about the “Paw pressure, 5 day 30 min” value (CCI) of the same molecule?
Answer: The value was 52.4 ± 4.6 g.

Question: What about the “Paw pressure, 10 day 30 min” value (CCI) of the same molecule?
Answer: The value was 52.7 ± 5.6 g.

Question: And the “Paw pressure, 14 day 30 min” value (CCI)?
Answer: The value was 56.7 ± 6.2 g.

Question: What about the “Paw pressure, 14 day 4 h” value (CCI) of the same molecule?
Answer: The value was 57.1 ± 5.5 g.

Question: And the “Paw pressure, 14 day 8 h” value (CCI)?
Answer: Its value is 62.3 ± 6.5 g.

Question: What about the “Paw pressure, 15 day 24 h” value (CCI) of the same molecule?
Answer: Its value is 59.6 ± 5.7 g.

Question: And the “Paw pressure, 18 day 3 days” value (CCI)?
Answer: The value was 58.2 ± 5.5 g.

Question: What about the “Paw pressure, pre-test before all treatments” value (SHAM group) of the same molecule?
Answer: Its value is 61.8 ± 2.9 g.

Question: What about the “Paw pressure, 5 day 30 min” value (SHAM) of the same molecule?
Answer: Its value is 63.2 ± 4.1 g.

Question: What about the “Paw pressure, 10 day 30 min” value (SHAM) of the same molecule?
Answer: Its value is 69.2 ± 5.1 g.

Question: And the “Paw pressure, 14 day 30 min” value (SHAM)?
Answer: Its value is 71.2 ± 6.3 g.

Question: And the “Paw pressure, 14 day 4 h” value (SHAM)?
Answer: Its value is 69.2 ± 5.6 g.

Question: What about the “Paw pressure, 14 day 8 h” value (SHAM) of the same molecule?
Answer: Its value is 70.4 ± 5.9 g.

Question: And the “Paw pressure, 15 day 24 h” value (SHAM)?
Answer: Its value is 68.5 ± 5.8 g.

Question: And the “Paw pressure, 18 day 3 days” value (SHAM)?
Answer: The value was 66.4 ± 4.8 g.

Question: And the “Effect on paw pressure test after the last administration (in words)” value (p.o. 100 mg/kg once a day for 14 days from the day of sciatic nerve ligation)?
Answer: The value was “still active after 72 hr”.
